The supplement of paper PMC10307832

Key:
Assay in all cases: relative viability (nuclei count vs DMSO), 5 days (fraction); higher = more cells survive
GSK126 + Lapatinib = compound: CC[C@H](C)N1C=C(C2=C(C=C(C=C21)C3=CN=C(C=C3)N4CCNCC4)C(=O)NCC5=C(C=C(NC5=O)C)C)C [GSK126] + CS(=O)(=O)CCNCc1ccc(-c2ccc3ncnc(Nc4ccc(OCc5cccc(F)c5)c(Cl)c4)c3c2)o1 [Lapatinib] (partner 2 µM)
How it was run: (§1)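 After 5 days of treatment, lung cancer cells in 1536-well plates were fixed and stained in a single step (final 0.05% Triton X-100, 1% formaldehyde, 1 ug/ml Hoechst) and their nuclei counted on 4× images. Treatment had been applied by pin tool the day after seeding as one drug alone or as a fixed anchor-drug dose with five library-drug doses (not always all listed) in √10 steps. Relative viability is the nuclei count of treated wells divided by that of vehicle wells, and values are medians of duplicate plates.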

GSK126 + Foretinib = compound: CC[C@H](C)N1C=C(C2=C(C=C(C=C21)C3=CN=C(C=C3)N4CCNCC4)C(=O)NCC5=C(C=C(NC5=O)C)C)C [GSK126] + COc1cc2c(Oc3ccc(NC(=O)C4(C(=O)Nc5ccc(F)cc5)CC4)cc3F)ccnc2cc1OCCCN1CCOCC1 [Foretinib] (partner 0.25 µM)
How it was run: as §1

GSK126 + Bortezomib = compound: CC[C@H](C)N1C=C(C2=C(C=C(C=C21)C3=CN=C(C=C3)N4CCNCC4)C(=O)NCC5=C(C=C(NC5=O)C)C)C [GSK126] + CC(C)C[C@H](NC(=O)[C@H](Cc1ccccc1)NC(=O)c1cnccn1)B(O)O [Bortezomib] (partner 0.002 µM)
How it was run: as §1

[1] = compound: C1CC(C1)(C(=O)O)C(=O)O.[NH2-].[NH2-].[Pt+2] [Carboplatin] + CC(=O)c1c(C)c2cnc(Nc3ccc(N4CCNCC4)cn3)nc2n(C2CCCC2)c1=O [Palbociclib] (partner 0.5 µM)
How it was run: as §1

Cell Line | relative viability (GSK126 + Lapatinib; first compound 0.08 µM) | relative viability (GSK126 + Lapatinib; first compound 0.253 µM) | relative viability (GSK126 + Lapatinib; first compound 0.8 µM) | relative viability (GSK126 + Lapatinib; first compound 2.53 µM) | relative viability (GSK126 + Lapatinib; first compound 8 µM) | relative viability (GSK126 + Foretinib; first compound 0.08 µM) | relative viability (GSK126 + Foretinib; first compound 0.253 µM) | relative viability (GSK126 + Foretinib; first compound 0.8 µM) | relative viability (GSK126 + Foretinib; first compound 2.53 µM) | relative viability (GSK126 + Foretinib; first compound 8 µM) | relative viability (GSK126 + Bortezomib; first compound 0.08 µM) | relative viability (GSK126 + Bortezomib; first compound 0.253 µM) | relative viability (GSK126 + Bortezomib; first compound 0.8 µM) | relative viability (GSK126 + Bortezomib; first compound 2.53 µM) | relative viability (GSK126 + Bortezomib; first compound 8 µM) | relative viability ([1]; first compound 0.08 µM) | relative viability ([1]; first compound 0.253 µM) | relative viability ([1]; first compound 0.8 µM) | relative viability ([1]; first compound 2.53 µM) | relative viability ([1]; first compound 8 µM)
NCI-H2228 | 1.11 | 1.15 | 1.06 | 1.16 | 1.33 | 0.871 | 0.828 | 0.789 | 0.832 | 0.628 | 1.01 | 0.787 | 0.763 | 1.08 | 1.05 | 0.898 | 0.841 | 0.654 | 0.737 | 0.552
NCI-H2347 | 1.04 | 1.04 | 0.917 | 0.994 | 0.94 | 0.842 | 0.861 | 1.07 | 1.25 | 1.35 | 0.931 | 0.924 | 0.917 | 1.36 | 0.89 | 0.456 | 0.418 | 0.423 | 0.482 | 0.42
NCI-H2405 | 1.12 | 1.02 | 1.06 | 1.17 | 1.15 | 1.03 | 1 | 1.02 | 1.06 | 1.02 | 0.988 | 0.974 | 0.985 | 0.982 | 0.975 | 0.552 | 0.542 | 0.542 | 0.543 | 0.449
NCI-H3122 | 1.01 | 1.01 | 1.04 | 0.965 | 0.95 | 0.983 | 1.03 | 0.985 | 1.01 | 0.994 | 1.01 | 1.04 | 0.994 | 1.01 | 1.07 | 0.17 | 0.211 | 0.17 | 0.183 | 0.189
PC-3 [JPC-3] | 0.43 | 0.489 | 0.527 | 0.477 | 0.462 | 1.02 | 1.02 | 1.02 | 1.01 | 0.997 | 0.823 | 1.01 | 0.786 | 0.817 | 0.856 | 0.537 | 0.577 | 0.511 | 0.526 | 0.512
PC-14 | 0.359 | 0.309 | 0.292 | 0.307 | 0.326 | 0.914 | 0.886 | 0.924 | 0.908 | 0.918 | 0.774 | 0.943 | 0.895 | 0.781 | 0.782 | 0.552 | 0.509 | 0.411 | 0.239 | 0.117
RERF-LC-KJ | 0.927 | 0.854 | 0.822 | 0.889 | 0.867 | 0.955 | 0.893 | 0.852 | 0.897 | 0.825 | 1.14 | 1.23 | 0.938 | 1.16 | 1.07 | 1.22 | 1.09 | 0.894 | 0.815 | 0.651
SK-LU-1 | 0.91 | 0.882 | 0.889 | 0.913 | 0.818 | 0.899 | 0.788 | 0.795 | 0.973 | 0.964 | 1.19 | 0.95 | 1.19 | 1.38 | 1.05 | 0.424 | 0.386 | 0.363 | 0.415 | 0.355
SW 1573 | 1.09 | 1.07 | 0.989 | 1.27 | 1.28 | 1.09 | 1.04 | 0.929 | 1.05 | 0.949 | 1.06 | 1.1 | 0.989 | 1.01 | 1.26 | 0.484 | 0.438 | 0.43 | 0.369 | 0.273
